Test results: patent US12552846B2, “Modified BCL9 mimetic peptides” (Sapience Therapeutics, Inc., priority 2019, dated 2026)
Square brackets hold non-standard residues; d marks the D form. Peptide text beside a SMILES is read from it. * marks the point of attachment. dOrn = NCCC[C@@H](N)C(=O)O; Octanoyl = CCCCCCCC(=O)*

Legend:
[1] = tested on: HL60 promyelocytic leukemia cells; assay: Cytotoxicity assay in HL60 cells (Annexin V FITC / PI flow cytometry); assay type: cell-based; settings: 48 hours; for EC50: 0-80 μM, % Viability (Annexin V low, PI low)
Summary of the method: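 HL60 cells at 3.5×10^3/well in RPMI + 1.5% FBS exposed to peptides at 0-80 μM final for 48 h at 37 °C. Viability by flow cytometry after Annexin V-FITC/PI staining, gated on FSC vs SSC. % Viability is the fraction that is Annexin V^low and PI^low.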

MCF7 breast cancer cells = assay: MCF7 subcutaneous tumor model, tumor volume; assay type: in vivo, NU/J mice; settings: for tumor volume relative to vehicle and to peptide control BCL-134: 1 mg/kg or 5 mg/kg s.c. three times weekly for three weeks, dosing from day 14, starting tumor about 340 mm^3, p≤0.0004
Description: In this experiment, we examined the effect of peptide BCL-26 on tumor volume in an MCF7 subcutaneous tumor model. Briefly, 2×10^6 MCF7 breast cancer cells, suspended 1:1 in Matrigel, were implanted via subcutaneous injection into the axilla of NU/J mice. Peptide BCL-26 was administered at a dose of 12.5 mg/kg via subcutaneous injection three times weekly for three weeks. Dosing was initiated on day 2 post tumor inoculation, with an average starting tumor volume of about 25 mm^3.
We also examined the effect of BCL9 mimetic peptides in established tumors. MCF7 cells were implanted into mice as described above. Peptide BCL-87 was administered at a dose of 5 mg/kg via subcutaneous injection three times weekly for three weeks. Dosing was initiated on day 21 post tumor inoculation, with an average starting tumor volume of about 470 mm^3.
We additionally examined the effect of different concentrations of mimetic peptides in established tumors. MCF7 cells were implanted into mice as described above. Peptides BCL-27 and BCL-87 were administered at a dose of 1 mg/kg or 5 mg/kg via subcutaneous injection three times weekly for three weeks. Dosing was initiated on day 14 post tumor inoculation, with an average starting tumor volume of about 340 mm^3.

Compound | EC50 [1] | other results
CSCC[C@@H](NC(=O)[C@@H](CC(C)C)NC(=O)[C@H](N)Cc1ccccc1)C(=O)N[C@H](CCCNC(=N)N)C(=O)N[C@H](CCC(N)=O)C(=O)N[C@H](CC(C)C)C(=O)N[C@H](CC(=O)O)C(=O)N[C@H](CCCNC(=N)N)C(=O)N[C@H](CC(C)C)C(=O)N[C@@H](C(=O)N[C@H](CCC(N)=O)C(=O)N[C@H](CC(C)C)C(=O)N[C@H](C)C(=O)N[C@H](CCCCN)C(=O)N[C@H](CC(C)C)C(=O)N[C@@H](C(=O)N1CCC[C@@H]1C(=O)N[C@@H](C(=O)O)C(C)C)[C@H](C)O)[C@H](C)O [BCL-26, FLMRQLDRLTQLAKLTPV] (H-[dF][dL][dM][dR][dQ][dL][dD][dR][dL][dT][dQ][dL][dA][dK][dL][dT][dP][dV]-OH; N-terminus and C-terminus assumed) | > 10 µM | tumor volume relative to vehicle (MCF7 breast cancer cells; 12.5 mg/kg s.c. three times weekly for three weeks, dosing from day 2, starting tumor about 25 mm^3, p<0.0001): significantly reduced tumor volume
CC(C)C[C@@H](NC(=O)[C@@H](Cc1c[nH]c2ccccc12)NC(=O)[C@H](N)Cc1c[nH]c2ccccc12)C(=O)N[C@H](C)C(=O)N[C@H](CCCNC(=N)N)C(=O)N[C@H](CCC(N)=O)C(=O)N[C@H](CC(C)C)C(=O)N[C@H](C)C(=O)N[C@H](CCCNC(=N)N)C(=O)N[C@H](CC(C)C)C(=O)N[C@H](C)C(=O)N[C@H](CCC(N)=O)C(=O)N[C@H](CC(C)C)C(=O)N[C@H](C)C(=O)N[C@H](CCCCN)C(=O)N[C@H](CC(C)C)C(=O)N[C@@H](C(=O)N1CCC[C@@H]1C(=O)N[C@@H](C(=O)O)C(C)C)[C@H](C)O [BCL-27, WWLARQLARLAQLAKLTPV] (H-[dW][dW][dL][dA][dR][dQ][dL][dA][dR][dL][dA][dQ][dL][dA][dK][dL][dT][dP][dV]-OH; N-terminus and C-terminus assumed) | 2 to 10 µM | tumor volume relative to vehicle and to peptide control BCL-134 (MCF7 breast cancer cells): significantly reduced tumor volume
CC(C)C[C@@H](NC(=O)[C@@H](CCCNC(=N)N)NC(=O)[C@@H](C)NC(=O)[C@@H](CC(C)C)NC(=O)[C@@H](CCC(N)=O)NC(=O)[C@@H](CCCNC(=N)N)NC(=O)[C@@H](C)NC(=O)[C@@H](CC(C)C)NC(=O)[C@@H](Cc1c[nH]c2ccccc12)NC(=O)[C@@H](Cc1c[nH]c2ccccc12)NC(=O)CNC(=O)[C@@H](CCCNC(=N)N)NC(=O)CNC(=O)[C@@H](CC(=O)O)NC(=O)[C@@H](CO)NC(=O)[C@H]1CCCN1)C(=O)N[C@H](C)C(=O)N[C@H](CCC(N)=O)C(=O)N[C@H](CC(C)C)C(=O)N[C@H](C)C(=O)N[C@H](CCCCN)C(=O)N[C@H](CC(C)C)C(=O)N[C@@H](C(=O)N1CCC[C@@H]1C(=O)N[C@@H](C(=O)O)C(C)C)[C@H](C)O [BCL-87] (H-[dP][dS][dD]G[dR]G[dW][dW][dL][dA][dR][dQ][dL][dA][dR][dL][dA][dQ][dL][dA][dK][dL][dT][dP][dV]-OH; N-terminus and C-terminus assumed) | 2 to 10 µM | tumor volume relative to vehicle and to peptide control BCL-134 (MCF7 breast cancer cells): significantly reduced tumor volume; tumor volume relative to vehicle (MCF7 breast cancer cells; 5 mg/kg s.c. three times weekly for three weeks, dosing from day 21, starting tumor about 470 mm^3, p<0.005): significantly reduced tumor volume
CC(C)C[C@@H](NC(=O)[C@@H](C)NC(=O)[C@@H](C)NC(=O)[C@@H](CC(C)C)NC(=O)[C@@H](CCC(N)=O)NC(=O)[C@@H](C)NC(=O)[C@@H](C)NC(=O)[C@@H](CC(C)C)NC(=O)[C@@H](Cc1c[nH]c2ccccc12)NC(=O)[C@@H](Cc1c[nH]c2ccccc12)NC(=O)CNC(=O)[C@@H](CCCNC(=N)N)NC(=O)CNC(=O)[C@@H](CC(=O)O)NC(=O)[C@@H](CO)NC(=O)[C@H]1CCCN1)C(=O)N[C@H](C)C(=O)N[C@H](CCC(N)=O)C(=O)N[C@H](CC(C)C)C(=O)N[C@H](C)C(=O)N[C@H](CCCCN)C(=O)N[C@H](CC(C)C)C(=O)N[C@@H](C(=O)N1CCC[C@@H]1C(=O)N[C@@H](C(=O)O)C(C)C)[C@H](C)O [BCL-134, reference compound] (H-[dP][dS][dD]G[dR]G[dW][dW][dL][dA][dA][dQ][dL][dA][dA][dL][dA][dQ][dL][dA][dK][dL][dT][dP][dV]-OH; N-terminus and C-terminus assumed) | > 80 µM | cytotoxic activity [1]: Lack of cytotoxic activity
CCCCCCCC(=O)N1CCC[C@@H]1C(=O)N[C@H](CO)C(=O)N[C@H](CC(=O)O)C(=O)NCC(=O)N[C@H](CCCNC(=N)N)C(=O)NCC(=O)N[C@H](Cc1c[nH]c2ccccc12)C(=O)N[C@H](Cc1c[nH]c2ccccc12)C(=O)N[C@H](CC(C)C)C(=O)N[C@H](C)C(=O)N[C@H](CCCNC(=N)N)C(=O)N[C@H](CCC(N)=O)C(=O)N[C@H](CC(C)C)C(=O)N[C@H](C)C(=O)N[C@H](CCCNC(=N)N)C(=O)N[C@H](CC(C)C)C(=O)N[C@H](C)C(=O)N[C@H](CCC(N)=O)C(=O)N[C@H](CC(C)C)C(=O)N[C@H](C)C(=O)N[C@H](CCCCN)C(=O)N[C@H](CC(C)C)C(=O)N[C@@H](C(=O)N1CCC[C@@H]1C(=O)N[C@@H](C(=O)O)C(C)C)[C@H](C)O [BCL-135] (Octanoyl-[dP][dS][dD]G[dR]G[dW][dW][dL][dA][dR][dQ][dL][dA][dR][dL][dA][dQ][dL][dA][dK][dL][dT][dP][dV]-OH; C-terminus assumed) | 2 to 10 µM | 
CCCCCCCC(=O)N1CCC[C@@H]1C(=O)N[C@H](CO)C(=O)N[C@H](CC(=O)O)C(=O)NCC(=O)N[C@H](CCCNC(=N)N)C(=O)NCC(=O)N[C@H](Cc1c[nH]c2ccccc12)C(=O)N[C@H](Cc1c[nH]c2ccccc12)C(=O)N[C@H](CC(C)C)C(=O)N[C@@H](C(=O)N[C@H](CCCNC(=N)N)C(=O)N[C@H](CCC(N)=O)C(=O)N[C@H](CC(C)C)C(=O)N[C@H](C)C(=O)N[C@H](CCCNC(=N)N)C(=O)N[C@H](CC(C)C)C(=O)N[C@H](C)C(=O)N[C@H](CCC(N)=O)C(=O)N[C@H](CC(C)C)C(=O)N[C@H](C)C(=O)N[C@H](CCCCN)C(=O)N[C@H](CC(C)C)C(=O)N[C@@H](C(=O)N1CCC[C@@H]1C(=O)N[C@@H](C(=O)O)C(C)C)[C@H](C)O)C(C)C [BCL-136a] (Octanoyl-[dP][dS][dD]G[dR]G[dW][dW][dL][dV][dR][dQ][dL][dA][dR][dL][dA][dQ][dL][dA][dK][dL][dT][dP][dV]-OH; C-terminus assumed) | < 2 µM | 
CC(C)C[C@@H](NC(=O)[C@@H](CCCN)NC(=O)[C@@H](C)NC(=O)[C@@H](CC(C)C)NC(=O)[C@@H](CCC(N)=O)NC(=O)[C@@H](CCCN)NC(=O)[C@@H](C)NC(=O)[C@@H](CC(C)C)NC(=O)[C@@H](Cc1c[nH]c2ccccc12)NC(=O)[C@@H](Cc1c[nH]c2ccccc12)NC(=O)CNC(=O)[C@@H](CCCNC(=N)N)NC(=O)CNC(=O)[C@@H](CC(=O)O)NC(=O)[C@@H](CO)NC(=O)[C@H]1CCCN1)C(=O)N[C@H](C)C(=O)N[C@H](CCC(N)=O)C(=O)N[C@H](CC(C)C)C(=O)N[C@H](C)C(=O)N[C@H](CCCN)C(=O)N[C@H](CC(C)C)C(=O)N[C@@H](C(=O)N1CCC[C@@H]1C(=O)N[C@@H](C(=O)O)C(C)C)[C@H](C)O [BCL-137] (H-[dP][dS][dD]G[dR]G[dW][dW][dL][dA][dOrn][dQ][dL][dA][dOrn][dL][dA][dQ][dL][dA][dOrn][dL][dT][dP][dV]-OH; N-terminus and C-terminus assumed) | < 2 µM | 
CCCCCCCC(=O)N[C@H](CC(C)C)C(=O)N[C@@H](C(=O)N[C@H](CCCNC(=N)N)C(=O)N[C@H](CCC(N)=O)C(=O)N[C@H](CC(C)C)C(=O)N[C@H](C)C(=O)N[C@H](CCCNC(=N)N)C(=O)N[C@H](CC(C)C)C(=O)N[C@H](C)C(=O)N[C@H](CCC(N)=O)C(=O)N[C@H](CC(C)C)C(=O)N[C@H](C)C(=O)N[C@H](CCCCN)C(=O)N[C@H](CC(C)C)C(=O)N[C@@H](C(=O)N1CCC[C@@H]1C(=O)N[C@@H](C(=O)O)C(C)C)[C@H](C)O)C(C)C [BCL-138] (Octanoyl-[dL][dV][dR][dQ][dL][dA][dR][dL][dA][dQ][dL][dA][dK][dL][dT][dP][dV]-OH; C-terminus assumed) | > 80 µM | cytotoxic activity [1]: Lack of cytotoxic activity
CC(C)C[C@@H](NC(=O)[C@@H](CCCNC(=N)N)NC(=O)[C@@H](C)NC(=O)[C@@H](CC(C)C)NC(=O)[C@@H](CCC(N)=O)NC(=O)[C@@H](CCCNC(=N)N)NC(=O)[C@H](NC(=O)[C@@H](CC(C)C)NC(=O)[C@@H](Cc1c[nH]c2ccccc12)NC(=O)[C@H](Cc1c[nH]c2ccccc12)NC(=O)CNC(=O)[C@@H](CCCNC(=N)N)NC(=O)CNC(=O)[C@@H](CC(=O)O)NC(=O)[C@@H](CO)NC(=O)[C@H]1CCCN1)C(C)C)C(=O)N[C@H](C)C(=O)N[C@H](CCC(N)=O)C(=O)N[C@H](CC(C)C)C(=O)N[C@H](C)C(=O)N[C@H](CCCCN)C(=O)N[C@H](CC(C)C)C(=O)N[C@@H](C(=O)N1CCC[C@@H]1C(=O)N[C@@H](C(=O)O)C(C)C)[C@H](C)O [BCL-139] (H-[dP][dS][dD]G[dR]GW[dW][dL][dV][dR][dQ][dL][dA][dR][dL][dA][dQ][dL][dA][dK][dL][dT][dP][dV]-OH; N-terminus and C-terminus assumed) | < 2 µM | 
